Assay results published in ChEMBL document CHEMBL1201862, “PubChem BioAssay data set” (2004).
The source made the active and inactive calls.

Key:
[1] = target: T1, Histone-lysine N-methyltransferase NSD2 (Homo sapiens, UniProt O96028); assay type: biochemical
T1 sequence (O96028 whole entry): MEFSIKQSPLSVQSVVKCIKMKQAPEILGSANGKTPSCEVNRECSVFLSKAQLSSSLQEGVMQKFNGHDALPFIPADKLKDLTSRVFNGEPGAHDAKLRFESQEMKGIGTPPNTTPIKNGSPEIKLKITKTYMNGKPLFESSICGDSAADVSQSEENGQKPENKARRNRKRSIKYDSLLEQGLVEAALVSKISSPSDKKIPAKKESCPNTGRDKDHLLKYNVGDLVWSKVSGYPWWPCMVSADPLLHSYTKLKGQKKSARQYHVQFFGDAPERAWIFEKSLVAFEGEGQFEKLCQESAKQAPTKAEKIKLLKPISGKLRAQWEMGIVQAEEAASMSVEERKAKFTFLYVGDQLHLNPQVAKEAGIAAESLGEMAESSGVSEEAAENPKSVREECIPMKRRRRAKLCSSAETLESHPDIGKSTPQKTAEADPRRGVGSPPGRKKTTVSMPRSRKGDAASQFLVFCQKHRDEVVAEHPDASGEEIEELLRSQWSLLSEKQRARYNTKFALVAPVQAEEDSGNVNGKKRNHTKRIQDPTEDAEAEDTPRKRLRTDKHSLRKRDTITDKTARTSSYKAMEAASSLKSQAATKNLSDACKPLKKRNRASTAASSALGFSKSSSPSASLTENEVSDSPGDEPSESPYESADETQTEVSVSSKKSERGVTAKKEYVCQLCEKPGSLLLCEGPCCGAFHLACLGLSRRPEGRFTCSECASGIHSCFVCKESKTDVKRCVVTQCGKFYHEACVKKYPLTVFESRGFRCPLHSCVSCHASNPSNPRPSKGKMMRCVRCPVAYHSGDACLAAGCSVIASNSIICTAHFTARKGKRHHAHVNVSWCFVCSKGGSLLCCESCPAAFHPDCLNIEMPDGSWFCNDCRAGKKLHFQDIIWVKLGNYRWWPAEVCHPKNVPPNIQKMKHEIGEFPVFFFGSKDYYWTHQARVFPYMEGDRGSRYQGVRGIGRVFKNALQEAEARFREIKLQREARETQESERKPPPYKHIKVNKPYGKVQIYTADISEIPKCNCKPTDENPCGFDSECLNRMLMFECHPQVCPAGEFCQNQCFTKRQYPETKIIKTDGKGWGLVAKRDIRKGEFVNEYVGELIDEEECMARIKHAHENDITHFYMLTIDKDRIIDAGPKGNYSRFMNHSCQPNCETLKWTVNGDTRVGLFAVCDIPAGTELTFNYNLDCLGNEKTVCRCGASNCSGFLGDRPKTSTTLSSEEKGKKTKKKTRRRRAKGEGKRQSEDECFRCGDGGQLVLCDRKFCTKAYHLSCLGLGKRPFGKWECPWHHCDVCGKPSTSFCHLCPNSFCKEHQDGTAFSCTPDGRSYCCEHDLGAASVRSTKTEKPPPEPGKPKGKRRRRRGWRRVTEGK

[2] = target: T2, Sentrin-specific protease 7 (Homo sapiens, UniProt Q9BQF6); experiment: SENP7 protease inhibitors, SAR follow-up, biochemical, luminescence (AID 504497); assay type: functional
T2 sequence (Q9BQF6 whole entry): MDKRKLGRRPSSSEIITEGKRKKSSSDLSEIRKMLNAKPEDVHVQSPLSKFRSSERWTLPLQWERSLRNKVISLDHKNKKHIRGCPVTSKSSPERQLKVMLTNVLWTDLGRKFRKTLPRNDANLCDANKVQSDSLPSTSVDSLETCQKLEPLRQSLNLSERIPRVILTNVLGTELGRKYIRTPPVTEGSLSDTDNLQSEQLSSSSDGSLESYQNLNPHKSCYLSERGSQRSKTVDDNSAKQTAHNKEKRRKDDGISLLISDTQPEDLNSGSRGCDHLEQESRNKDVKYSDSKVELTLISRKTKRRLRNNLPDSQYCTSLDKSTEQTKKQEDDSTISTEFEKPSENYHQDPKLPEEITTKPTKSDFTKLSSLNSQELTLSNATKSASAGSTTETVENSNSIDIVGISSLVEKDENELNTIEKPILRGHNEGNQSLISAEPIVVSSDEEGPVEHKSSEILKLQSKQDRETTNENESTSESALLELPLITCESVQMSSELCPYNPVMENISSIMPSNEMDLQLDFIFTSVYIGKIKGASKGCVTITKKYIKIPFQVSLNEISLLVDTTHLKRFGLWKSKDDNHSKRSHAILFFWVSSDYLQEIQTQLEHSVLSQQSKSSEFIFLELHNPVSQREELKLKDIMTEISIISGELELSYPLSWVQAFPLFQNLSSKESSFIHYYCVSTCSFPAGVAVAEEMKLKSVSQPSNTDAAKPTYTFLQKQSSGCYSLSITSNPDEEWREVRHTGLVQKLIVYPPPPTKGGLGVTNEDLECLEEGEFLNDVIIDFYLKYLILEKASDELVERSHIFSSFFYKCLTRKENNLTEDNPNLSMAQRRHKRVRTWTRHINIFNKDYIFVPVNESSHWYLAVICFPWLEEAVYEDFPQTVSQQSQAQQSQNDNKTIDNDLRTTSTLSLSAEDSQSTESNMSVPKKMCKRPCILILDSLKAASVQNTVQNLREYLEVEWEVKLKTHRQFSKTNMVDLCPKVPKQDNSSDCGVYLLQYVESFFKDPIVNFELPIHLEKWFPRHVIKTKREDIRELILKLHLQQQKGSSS

| AC50 [1] | SMILES | IC50 [2] |
| --- | --- | --- |
| 5.86 µM (active) | CCOC(=O)C1=C(COC(=O)c2ccc([N+](=O)[O-])s2)NC(=O)NC1C (configuration not stated) |  |
|  | Oc1cccc(/C=N/Nc2cc(N3CCCC3)nc(N3CCCC3)n2)c1 | 49.7 µM (active) |
